Counter-ions that a name gives are not always drawn. Like-named read-outs stand apart in the source and are kept apart here.
How the values were obtained:
corn borers = details: concentration 600 mg/kg
potato late blight = assay: microbe, parasite or virus in culture; format: cell-based
[1] = system: tobacco mosaic virus (TMV); assay: Anti-TMV in vivo inactivation; set-up: species or system tobacco mosaic virus (host Nicotiana tabacum L.cv.Xanthi NN)
[2] = system: Colletotrichum orbiculare; assay: Fungicidal (bactericidal) activity in vitro, PDA colony diameter; format: cell-based; details: 50 mg/kg
Macrophoma kawatsukai = assay: as above; format: cell-based; details: 50 mg/kg
Cercospora arachidicola = assay: as above; format: cell-based; details: 50 mg/kg
Bipolaria maydis = assay: organism not typed; format: cell-based; details: 50 mg/kg
[3] = system: tobacco mosaic virus (TMV); assay: Anti-TMV in vivo protective effect; set-up: species or system tobacco mosaic virus (host Nicotiana tabacum L.cv.Xanthi NN)
Fusarium graminearumt = assay: microbe, parasite or virus in culture; format: cell-based; details: 50 mg/kg
Fusarium fujikuroi = assay: Fungicidal (bactericidal) activity in vitro, PDA colony diameter; format: cell-based; details: 50 mg/kg
Sclerotinia scleotiorum = assay: as above; format: cell-based; details: 50 mg/kg
cotton bollworms = assay: whole plant or invertebrate; details: concentration 600 mg/kg
Experimental: Experimental method of cotton bollworms: feed and drug mixing method: measure 3 mL of prepared solution and add it to about 27 g of newly prepared feed, thereby obtaining needed concentration through dilution by 10 times.

Rhizoctonia cereali = assay: Fungicidal (bactericidal) activity in vitro, PDA colony diameter; format: cell-based; details: 50 mg/kg
Rhizoctonia solani = assay: as above; format: cell-based; details: 50 mg/kg
[4] = system: tobacco mosaic virus (TMV); assay: Anti-TMV in vitro effect (half-leaf soaking); format: cell-based, tobacco mosaic virus (host Nicotiana tabacum L.cv.Xanthi NN)
[5] = system: tobacco mosaic virus (TMV); assay: Anti-TMV in vivo therapeutic effect; set-up: species or system tobacco mosaic virus (host Nicotiana tabacum L.cv.Xanthi NN)
cucumber fusarium wilt = assay: Fungicidal (bactericidal) activity in vitro, PDA colony diameter; format: cell-based; details: 50 mg/kg
mosquito larvae = assay: whole plant or invertebrate; details: concentration 10 mg/kg, 24 h
How it was run: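 Compound dissolved in acetone (or other solvent) to a 1000 ppm stock and diluted in water to 5 ppm. Ten Culex pipiens pallens larvae at the start of the fourth instar, laboratory-reared, added per beaker; solvent-only aqueous control.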

Alternaria solani = assay: Fungicidal (bactericidal) activity in vitro, PDA colony diameter; format: cell-based; details: 50 mg/kg
Botrytis cinerea = assay: as above; format: cell-based; details: 50 mg/kg
Phytophthora capsici = assay: as above; format: cell-based; details: 50 mg/kg
armyworms = format: in vivo; details: concentration 600 mg/kg

Compound	Corn borer Mortality (%) (corn borers)	Relative inhibition rate (%) In vivo inactivation ([1]; treatment dose 100 μg/mL) [%]	Relative inhibition rate (%) In vivo inactivation ([1]; treatment dose 500 μg/mL) [%]	Bactericidal activity (%) Colletotrichum orbiculare [2] [%]	Bactericidal activity (%) Macrophoma kawatsukai (Macrophoma kawatsukai) [%]	Bactericidal activity (%) Cercospora arachidicola (Cercospora arachidicola) [%]	Bactericidal activity (%) Bipolaria maydis (Bipolaria maydis) [%]	Relative inhibition rate (%) In vivo protection ([3]; treatment dose 100 μg/mL) [%]	Relative inhibition rate (%) In vivo protection ([3]; treatment dose 500 μg/mL) [%]	Bactericidal activity (%) Fusarium graminearumt (Fusarium graminearumt) [%]	Bactericidal activity (%) Fusarium fujikuroi (Fusarium fujikuroi) [%]	Bactericidal activity (%) Sclerotinia scleotiorum (Sclerotinia scleotiorum) [%]	Cotton bollworm Mortality (%) (cotton bollworms)	Bactericidal activity (%) Rhizoctonia cereali (Rhizoctonia cereali) [%]	Bactericidal activity (%) Rhizoctonia solani (Rhizoctonia solani) [%]	Relative inhibition rate (%) In vitro activity ([4]; treatment dose 100 μg/mL) [%]	Relative inhibition rate (%) In vitro activity ([4]; treatment dose 500 μg/mL) [%]	Relative inhibition rate (%) In vivo therapy ([5]; treatment dose 100 μg/mL) [%]	Relative inhibition rate (%) In vivo therapy ([5]; treatment dose 500 μg/mL) [%]	Bactericidal activity (%) Cucumber fusarium wilt (cucumber fusarium wilt) [%]	other results
CCOC(=O)C1Cc2c([nH]c3ccccc23)C(C)=N1 (centres unmarked) [Ib-14, 1-methyl-4,9-dihydro-pyridino [3,4-b] indol-3-ethyl formate]	10	0	35.7	42.9	33.3	69.2	36.4	21.4	47	42.9	28.6	29.4	30	65.8	59.2	11.1	42.6	15.9	45.8	23.1	Bactericidal activity (%) potato late blight (potato late blight; 50 mg/kg): 36.4%; Mosquito larvae Mortality (%) (mosquito larvae): 30%; Bactericidal activity (%) Alternaria solani (Alternaria solani): 42.1%; Bactericidal activity (%) Botrytis cinerea (Botrytis cinerea): 36.4%; Bactericidal activity (%) Phytophthora capsici (Phytophthora capsici): 15.6%; Armyworm Mortality (%) (armyworms): 10%
C[C@@H]1N[C@H](C(=O)NCCO)Cc2c1[nH]c1ccccc21 [Ib-18, (1S, 3S)—N-(2-ethoxyl)-1-methyl-2,3,4,9-tetrahydro-pyridino [3,4-b] indol-3-formamide]	5	10	41.5	23.8	70.6	21.4	26.3	12.1	41	28.6	35.7	68.0	5	53.1	35.7	5.4	37.6	18.6	40	23.8	Bactericidal activity (%) potato late blight (potato late blight): 5.0%; Mosquito larvae Mortality (%) (mosquito larvae): 10%; Bactericidal activity (%) Alternaria solani (Alternaria solani): 27.8%; Bactericidal activity (%) Botrytis cinerea (Botrytis cinerea): 27.3%; Bactericidal activity (%) Phytophthora capsici (Phytophthora capsici): 36.4%; Armyworm Mortality (%) (armyworms): 5%
C[C@@H]1N[C@H](C(=O)NN=Cc2ccc(N(C)C)cc2)Cc2c1[nH]c1ccccc21 [Ic-3, (1S, 3S)—N′-(4-dimethylaminobenzylidene)-1-methyl-2,3,4,9-tetrahydropyridino [3,4-b] indol-3-formylhydrazine]	30	25	64.5	48.1	97.2	76.5	64.0	18.9	62.4	31.0	35.7	41.2	40	96.1	63.2	20.4	56.8	23.1	60.4	38.5	Bactericidal activity (%) potato late blight (potato late blight): 72.0%; Mosquito larvae Mortality (%) (mosquito larvae): 55%; Bactericidal activity (%) Alternaria solani (Alternaria solani): 65.0%; Bactericidal activity (%) Botrytis cinerea (Botrytis cinerea): 72.7%; Bactericidal activity (%) Phytophthora capsici (Phytophthora capsici): 78.9%; Armyworm Mortality (%) (armyworms): 25%
C[C@@H]1N[C@H](C(=O)NN=Cc2ccc([N+](=O)[O-])cc2)Cc2c1[nH]c1ccccc21 [Ic-4, (1S, 3S)—N′-(4-nitrobenzylidene)-1-methyl-2,3,4,9-tetrahydropyridino [3,4-b] indol-3-formylhydrazine]	35	27.4	58.3	48.1	72.2	58.8	60.0	21.4	61.5	58.6	42.9	88.2	35	88.2	59.2	19.6	62.8	20.8	57.1	38.5	Bactericidal activity (%) potato late blight (potato late blight): 52.0%; Mosquito larvae Mortality (%) (mosquito larvae): 65%; Bactericidal activity (%) Alternaria solani (Alternaria solani): 45.0%; Bactericidal activity (%) Botrytis cinerea (Botrytis cinerea): 72.7%; Bactericidal activity (%) Phytophthora capsici (Phytophthora capsici): 78.9%; Armyworm Mortality (%) (armyworms): 30%

Reference: patent US10208033B2, “β-carboline, dihydro-β-carboline and tetrahydro-β-carboline alkaloid derivatives and preparation methods same and use in aspects of preventing and treating plant viruses, fungicides and insecticides” (NANKAI UNIVERSITY, priority 2013, dated 2019)
